Results from US20060229242A1, “Composition comprising a pulmonary surfactant and a pde2 inhibitor” (Altana Phazma AG, priority 2003, published 2006).

Test system: Male Wistar rats
Experiment: Rat lung lavage experiment: arterial blood oxygenation after repeated saline lung lavage
Assay type: in vivo
Settings: rat lung lavage model; intratracheal, 1.2 mL, 60 min after lavage; PODPO 100 nM alone, or VENTICUTE 12.5 mgPL/kg with PODPO 100 nM (p<0.05 to p<0.001 versus VENTICUTE alone); up to 150 min
Protocol: (§1) Male Wistar rats were prepared according to Example 5 and lungs were ravaged 5-9 times with NaCl 0.9% (=>PaO2˜50-100 mmHg). After 60 min NaCl 0.9% (open circles), VENTICUTE 12.5 mgPL/kg (filled squares, PL=Phospholipids), PODPO (9-(6-Phenyl-2-oxohex-3-yl)-2-(3,4-dimethoxybenzyl)-purin-6-one) 100 nM (stars), or VENTICUTE 12.5 mgPL/kg in combination with PODPO 100 nM (open squares) was administered intratracheally (administration volume 1.2 mL). Arterial blood oxygenation (PaO2) was determined every 30 min up to 150 min after drug administration (t=210 min). […] Data are shown as mean±SEM. * p<0.05, *** p<0.001 versus VENTICUTE 12.5 mgPL/kg.
as §1, with “rats (220-250 g)” for “rats”, “anaesthetized, catheterised” for “prepared according”, “withdraw arterial blood,” for “Example 5”, “and ventilated with pure oxygen (=>PaO2˜500-550 mmHg). 30 min later” for “and”, “lavaged” for “ravaged”

COc1ccc(Cc2nc3c(ncn3C(CCCc3ccccc3)C(C)=O)c(=O)[nH]2)cc1OC (stereo not shown) [PODPO, 9-(6-Phenyl-2-oxohex-3-yl)-2-(3,4-dimethoxybenzyl)-purin-6-one]
Influence on arterial blood oxygenation (PaO2), in words: no influence on oxygenation
